Laboratory results reported in PubChem BioAssay AID256 (DTP/NCI, 2004).
Where “and” joins values, the source holds several entries; their conditions need not be identical. Equal values may be shown once. Inconclusive results and toxic doses are left out.

Test system: CD2F1 mice, L1210 leukemia ip, survival T/C
Test: NCI In Vivo Anticancer Drug Screen. Data for tumor model L1210 Leukemia (intraperitoneal) in CD2F1 (CDF1) mice
Details: higher = longer survival
Procedure, shortened: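 Activity against a transplanted murine tumor was judged by comparing the compound group with a vehicle group. The outcome in the treated animals was divided by that in the controls.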

[1] = endpoint: mean survival time, dose: 25.0 mg/kg/injection, schedule: Q01DX009 (ip), vehicle: saline with Tween-80
[2] = endpoint: mean survival time, dose: 50.0 mg/kg/injection, schedule: Q01DX009 (ip), vehicle: saline with Tween-80
[3] = endpoint: mean survival time, dose: 100.0 mg/kg/injection, schedule: Q01DX009 (ip), vehicle: saline with Tween-80
[4] = endpoint: mean survival time, dose: 200.0 mg/kg/injection, schedule: Q01DX009 (ip), vehicle: saline with Tween-80
[5] = endpoint: mean survival time, dose: 100.0 mg/kg/injection, schedule: Q04DX003 (ip), vehicle: saline with Tween-80
[6] = endpoint: mean survival time, dose: 200.0 mg/kg/injection, schedule: Q04DX003 (ip), vehicle: saline with Tween-80
[7] = endpoint: mean survival time, dose: 400.0 mg/kg/injection, schedule: Q04DX003 (ip), vehicle: saline with Tween-80

## C/C=C/C=C/c1cc2cc3c(c(O)c2c(=O)[nH]1)C1(CC3)C(O)=c2c(=O)c3c(=O)cc(OC)c(=O)c=3c(=O)c2=C1O (stereo unspecified)
endpoint: mean survival time, dose: 0.06 mg/kg/injection, schedule: Q01DX009 (ip), vehicle: DMSO
  T/C: 90 % of control and 93 % of control and 108 % of control
endpoint: mean survival time, dose: 0.06 mg/kg/injection, schedule: Q01DX009 (ip), vehicle: Klucel (hydroxypropylcellulose) (HPC)
  T/C: 97 % of control
endpoint: mean survival time, dose: 0.12 mg/kg/injection, schedule: Q01DX009 (ip), vehicle: DMSO
  T/C: 113 % of control and 107 % of control
endpoint: mean survival time, dose: 0.12 mg/kg/injection, schedule: Q01DX009 (ip), vehicle: Klucel (hydroxypropylcellulose) (HPC)
  T/C: 98 % of control
endpoint: mean survival time, dose: 0.25 mg/kg/injection, schedule: Q01DX009 (ip), vehicle: DMSO
  T/C: 118 % of control
endpoint: mean survival time, dose: 0.25 mg/kg/injection, schedule: Q01DX009 (ip), vehicle: Klucel (hydroxypropylcellulose) (HPC)
  T/C: 98 % of control
endpoint: mean survival time, dose: 0.5 mg/kg/injection, schedule: Q01DX009 (ip), vehicle: DMSO
  T/C: 94 % of control
endpoint: mean survival time, dose: 0.5 mg/kg/injection, schedule: Q01DX009 (ip), vehicle: Klucel (hydroxypropylcellulose) (HPC)
  T/C: 98 % of control
endpoint: mean survival time, dose: 1.0 mg/kg/injection, schedule: Q01DX009 (ip), vehicle: Klucel (hydroxypropylcellulose) (HPC)
  T/C: 98 % of control
endpoint: mean survival time, dose: 2.0 mg/kg/injection, schedule: Q01DX009 (ip), vehicle: Klucel (hydroxypropylcellulose) (HPC)
  T/C: 104 % of control
endpoint: median survival time, dose: 0.03 mg/kg/injection, schedule: Q01DX009 (ip), vehicle: DMSO
  T/C: 89 % of control

## O=C(Nc1cc(S(=O)(=O)O)cc2cc(S(=O)(=O)O)c(N=Nc3ccc([As](=O)(O)O)cc3)c(O)c12)c1ccc([N+](=O)[O-])cc1
endpoint: mean survival time, dose: 12.5 mg/kg/injection, schedule: Q04DX002 (ip), vehicle: saline
  T/C: 101 % of control
endpoint: mean survival time, dose: 25.0 mg/kg/injection, schedule: Q04DX002 (ip), vehicle: saline
  T/C: 94 % of control
endpoint: mean survival time, dose: 50.0 mg/kg/injection, schedule: Q04DX002 (ip), vehicle: saline
  T/C: 94 % of control

## c1ccc(CSc2ncnc3nc[nH]c23)nc1
endpoint: mean survival time, dose: 133.0 mg/kg/injection, schedule: Q04DX003 (ip), vehicle: saline with Tween-80
  T/C: 117 % of control
endpoint: mean survival time, dose: 300.0 mg/kg/injection, schedule: Q04DX003 (ip), vehicle: saline with Tween-80
  T/C: 102 % of control

## CCOC(=O)c1cn(C)c2c1C(O)=C(C(=O)OC)CC(=O)N2
endpoint: median survival time, dose: 25.0 mg/kg/injection, schedule: Q01DX009 (ip), vehicle: saline with Tween-80
  T/C: 90 % of control
endpoint: median survival time, dose: 50.0 mg/kg/injection, schedule: Q01DX009 (ip), vehicle: saline with Tween-80
  T/C: 98 % of control
endpoint: median survival time, dose: 100.0 mg/kg/injection, schedule: Q01DX009 (ip), vehicle: saline with Tween-80
  T/C: 92 % of control
endpoint: median survival time, dose: 200.0 mg/kg/injection, schedule: Q01DX009 (ip), vehicle: saline with Tween-80
  T/C: 94 % of control
endpoint: median survival time, dose: 400.0 mg/kg/injection, schedule: Q01DX009 (ip), vehicle: saline with Tween-80
  T/C: 90 % of control

## Cc1cn(C2CC(OS(C)(=O)=O)C(COC(c3ccccc3)(c3ccccc3)c3ccccc3)O2)c(=O)[nH]c1=O (stereo unspecified)
endpoint: mean survival time, dose: 12.5 mg/kg/injection, schedule: Q01DX005 (ip), vehicle: other
  T/C: 95 % of control
endpoint: mean survival time, dose: 25.0 mg/kg/injection, schedule: Q01DX005 (ip), vehicle: other
  T/C: 90 % of control
endpoint: mean survival time, dose: 50.0 mg/kg/injection, schedule: Q01DX005 (ip), vehicle: other
  T/C: 91 % of control
endpoint: mean survival time, dose: 200.0 mg/kg/injection, schedule: Q01DX005 (ip), vehicle: other
  T/C: 91 % of control

## O=[N+]([O-])c1cccc(SNc2cccc(Cl)c2)c1
[1]
  T/C: 102 % of control
[2]
  T/C: 90 % of control
[3]
  T/C: 94 % of control

## CN(C)N=Nc1c(F)cc(F)cc1F
[1]
  T/C: 98 % of control
[2]
  T/C: 102 % of control
[4]
  T/C: 90 % of control

## CCOc1ccc(N2C(=O)CSC2=S)cc1
[2]
  T/C: 95 % of control
[3]
  T/C: 87 % of control
[4]
  T/C: 93 % of control

## Nc1nc(Cl)cc(-c2ccccc2)n1
[5]
  T/C: 102 % of control
[6]
  T/C: 90 % of control
[7]
  T/C: 90 % of control

## CCOC(=O)Nc1cc(Cl)ccc1O
[3]
  T/C: 103 % of control
[5]
  T/C: 92 % of control
[4]
  T/C: 104 % of control
[6]
  T/C: 103 % of control
[7]
  T/C: 88 % of control

## CN(C)N=Nc1c(F)c(F)cc(F)c1F
[1]
  T/C: 102 % of control
[2]
  T/C: 107 % of control
[4]
  T/C: 151 % of control
endpoint: mean survival time, dose: 400.0 mg/kg/injection, schedule: Q01DX009 (ip), vehicle: saline with Tween-80
  T/C: 112 % of control
